Read-outs that look alike come from different tables or passages of the source.
Columns and labels:
[1] = ref Rolla et al. ([2013]); cited from earlier work
[2] = Longitudinal water proton relaxivity (r1p) of the Mn(II) complexes; type: physicochemical; settings: 0.5 T field strength, 25 °C and pH = 7.4
Protocol: The relaxometric data were collected using a Bruker Minispec MQ20 NMR relaxometer. […] A datapoint plotted on figures represents an average of 5–6 T1 measurements (Figures S3–S9 in Supplementary Material). The data were fitted by using the molar r1p relaxivity value of the MnCl2 ([…] at 0.49 T and 25 °C). The equilibrium constants were calculated using the PSEQUAD program (Zékány and Nagypál, [1985]).
The longitudinal water proton relaxation rates (r1 = 1/T1-1/Tw) were measured at 20 MHz with a Bruker Minispec MQ-20 relaxometer (Bruker Biospin, Germany). Samples were thermostated by using a circulating water bath at 25.0 ± 0.2 °C. The longitudinal relaxation times (T1) were measured by the inversion-recovery method (180° − τ − 90°), averaging 5–6 data points collected for each concentration point obtained from 14 different τ values (τ values ranging between 0 to at least 6 times the expected T1). The relaxivity of the complexes was determined by titrating a nearly 1.0 mM ligand solution with a Mn(II) stock solution at pH = 7.22–7.43 (50 mM HEPES buffer, I = 0.15 M NaCl, 25 °C). Under these conditions, the only Mn(II) ion containing species present in solution is the [Mn(L)], which was supported by the r1 vs. pH profiles. The relaxivity of the complex was determined as the slope of the strait line obtained by plotting 1/T1p values as a function of Mn(II) concentration for samples with [Ligand] > [Mn(II)]. The relaxivity of [Mn(DOTP)]^6− and [Mn(DO3P)]^4− was determined in the pH range of 10.0–11.0 and 8.5–9.3, respectively where mainly the [Mn(DO3P)]^4− and [Mn(DOTP)]^6− complex exists in solution (Figures S4 and S9 in Supplementary Material).
The relaxivity (r1p, mM^−1s^−1) is defined as the longitudinal water proton relaxation rate in a solution containing 1.0 mM concentration of the paramagnetic species. It characterizes the efficiency of a paramagnetic metal chelate to enhance the solvent proton relaxation rate at a given magnetic field (usually 20 MHz) and temperature. The inner-sphere contribution to relaxivity is directly proportional to the number of metal bound water molecules (q), and therefore, relaxivity values may provide some useful information on the hydration state of paramagnetic complexes of similar molecular weights and electronic relaxation times. […] The r1p values of the Mn(II) complexes formed with heptadentate 12-membered macrocyclic ligands were determined at 0.5 T field strength and 25 °C and reported in Table 4 along with some relaxivity data published for the complexes of hexa-, hepta- and octadentate ligands. […] Below these pH ranges the phosphonate moieties undergo protonation, which further increases the relaxivity (2.60–2.90 mM^−1s^−1 values were observed near pH = 7.4, see Supplementary Material). Similar increase in the relaxivity (to 3.20 mM^−1s^−1 at 20 MHz, 37 °C) is observed for the [Mn(DOTA)]^2− complex upon its protonation and formation of the thermodynamically stable diprotonated [Mn(H2DOTA)] complex that exists as a non-hydrated chelate both in solution and in the solid state (Wang and Westmoreland, [2009]). The relaxivity of the diprotonated species at t → 0 time point was determined from the extrapolation of the relaxivity vs. time data collected after acidification of the samples containing the complexes. The X-ray crystallographic structure of [Mn(H2DOTA)] indicates the protonation of two trans carboxylate moieties (e.g., the coordination around the metal ion is similar to that observed in [Mn(trans-DO2A)] as determined by DFT calculations). Thus, the relaxivity of the diprotonated [Mn(H2DOTA)] and [Mn(H2DOTMA)] complexes is expected to be similar to that of [Mn(trans-DO2A)] (when q = 0). The value obtained by us is considerably higher, which highlights the importance of prototropic exchange as a useful tool to improve the relaxivity of the complexes (however, it has to be underlined that the protonation of the complex generally leads to a decrease in kinetic inertness).

r1p [2] [mM⁻¹ s⁻¹] | SMILES | r1p [1] [mM⁻¹ s⁻¹]
– | O=C(O)CN1CCNCCN(CC(=O)O)CCN(CC(=O)O)CC1 [DO3A] | 1.30
1.28 | O=C(CN1CCN(CC(=O)N2CCCCC2)Cc2cccc(n2)CN(CC(=O)N2CCCCC2)CC1)N1CCCCC1.[Mn+2] [[Mn(PC3AM^Pip)]^2+] | –
